In paper PMC5344956 (Cancer Chemotherapy and Pharmacology, 2017):

How the values were obtained:
[1] = Metabolite profiling of plasma (HPLC-radiochromatography); format: in vivo, human; settings: % of TRA
Description: For each subject, a 0–24 h pooled plasma sample was prepared according to the scheme outlined in the literature. In addition, several pooled plasma samples across all subjects were prepared at these time points: 5, 10, 12, […], and 48 h, and every 24 h thereafter until 240 h.
All pooled 0–24, 5, 10, 12, and 24 h plasma samples were processed as follows. […] The samples were vortexed for 30 min and centrifuged at 4500g at 4 °C for 6 min. The supernatants were transferred into new polypropylene tubes and kept on ice. The resulting plasma protein pellets were extracted twice to ensure good recovery and the extracts were combined. The combined extracts were loaded onto Ostro sample preparation plates (Waters Corporation, Milford, MA, USA), dried, eluted with 0.2 mL of cold acetonitrile, and all eluates were collected and evaporated under nitrogen (TurboVap LV; Caliper Life Sciences, Hopkinton, MA, USA). The dry residues were reconstituted in 0.1 mL of methanol, and a 0.005-mL aliquot was removed for determination of radioactivity. The remainder of the supernatants were transferred to high-performance liquid chromatography (HPLC) vials and stored at −80 °C until analysis.
Pooled post-24-h plasma samples were extracted using a slightly modified procedure. […] Appropriate volumes of formic acid were added to achieve a final concentration of 1%. Then, the samples were warmed to 37 °C and loaded to preconditioned Oasis HLB cartridges (Waters Corporation, Milford, MA, USA). These columns were then washed with water, dried under vacuum, and eluted with methanol. The eluates were collected and evaporated under nitrogen. The dry residues were reconstituted in 0.1 mL of methanol, and a 0.005-mL aliquot was removed for determination of radioactivity. The remainder of the supernatants were transferred to HPLC vials and stored at −80 °C until analysis.
(§1) A Finnigan Surveyor HPLC system (Thermo Fisher Scientific Inc., San Jose, CA, USA), consisting of an LC pump plus an autosampler and a UV–Vis plus detector, was used mostly for profiling (except the post-24-h plasma samples, which were analyzed using a Dionex HPLC system). A Phenomenex® Gemini® C18, 5-μm, 3.0 × 100-mm column (Phenomenex Inc., Torrance, CA, USA) was used along with a C-12 guard column (4 × 2 mm). LC conditions were as follows: solvent A was 10 mM ammonium bicarbonate in water (pH 10.0) and solvent B was 100% methanol and the flow rate was 0.8 mL/min. The following gradient was employed (B%): 0–5 min (20%), 32 min (42%), 33 min (60%), 55 min (70%), 56–60 min (95%), and 62–70 min (20%).
(§2) Reconstituted solvent extracts (0.050–0.10 mL) of plasma, urine, or feces were injected onto the HPLC column. The post-column eluate was split after UV detection into two streams (0.64 and 0.16 mL/min). The 0.64-mL stream was diverted to a fraction collector (Gilson FX 204; Gilson Medical Electronics, Middleton, WI, USA) to be collected in 96-well plates at 0.16 min/well (ScintiPlates; PerkinElmer Life Sciences, Shelton, CT, USA), and the 0.16-mL stream was directed to the mass spectrometer. The solvent in the 96-well plates was removed at 40 °C using a Genevac evaporator (Genevac, Inc., Stone Ridge, NY, USA).
(§3) The radioactivity counts per minute (CPM) in each well was determined using a MicroBeta scintillation counter (PerkinElmer Life and Analytical Sciences). The resulting CPM vs. time data were processed using Excel (Microsoft Corporation, Seattle, WA, USA). The CPM in each well was background-subtracted (using the average CPM values of the blank region of the HPLC run). Radiochromatographic profiles were obtained by plotting the resulting net CPM values against time after injection. Radioactive peaks in the chromatographic profiles were identified, and the radioactivity in each peak was summed and reported as a percentage of TRA in the HPLC run.

[2] = Metabolite profiling of urine (HPLC-radiochromatography); format: in vivo, human; settings: 0–72 h pool
Description: Predose and 0–72-h urine samples (grand pool of all six subjects) were prepared. Urine samples (5 mL) were centrifuged, the supernatant was transferred to a 15-mL polypropylene tube and placed on ice; the residues were extracted with 1 mL of methanol and the methanol extracts were added to the supernatants. The combined extracts were evaporated under nitrogen and reconstituted in 0.2 mL of methanol. A 0.010-mL aliquot of the reconstituted solution was removed for determination of radioactivity, and the remainder was transferred to HPLC vials and stored at −80 °C.
as §1, §2, §3

[3] = Metabolite characterization by LC/MS/MS in human plasma, urine, and feces; settings: human plasma, urine, feces; LC/MS/MS
Description: The remaining eluate stream of 0.16 mL/min from the HPLC runs was diverted to the inlet of the mass spectrometer. The samples were analyzed using a heated electrospray ionization probe. Full-scan positive ion MS data were collected using Finnigan Exactive (MS^1) or Q-Exactive (MS^1 and MS^2) mass spectrometers (Thermo Fisher Scientific Inc.) Exact conditions are described in the Online Resource 3.
Finnigan Exactive or Q-Exactive mass spectrometers (Thermo Fisher Scientific Inc., San Jose, CA) were used to collect full scan MS^1 and MS^2 data.

For `Cc1ccc(C(=O)Nc2ccc(CN3CCN(C)CC3)c(C(F)(F)F)c2)cc1C#Cc1cnc2cccnn12.Cl` [Ponatinib, 3-(imidazo[1,2-b]pyridazin-3-ylethynyl)-4-methyl-N-(4-((4-methylpiperazin-1-yl)methyl)-3-(trifluoromethyl)phenyl)benzamide hydrochloride], the “% Distribution in plasma” value ([1]; 0–24 h pooled plasma) was 25.5%, the “% Distribution in plasma” value ([1]; 5 h pooled plasma) was 42.4% and the “% Distribution in plasma” value ([1]; 10 h pooled plasma) was 36.3%. The “% Distribution in plasma” value ([1]; 12 h pooled plasma) was 51.5%, the “% Distribution in plasma” value ([1]; 36 h pooled plasma) was 4.2% and the “% Distribution in plasma” value ([1]; 48 h pooled plasma) was 9.4%. The “% Distribution in plasma” value ([1]; 72 h pooled plasma) was 12.8%, the “% Distribution in plasma” value ([1]; 96 h pooled plasma) was 13.2% and the “% of total radioactive dose” value [2] was under 0.05%. The “% Distribution in matrix” value ([2]; % of urinary TRA) was “Trace levels” and the “Matrix (in which the metabolite was found)” value [3] was “P, U, F”.
